Results reported in US20080220416A1, “Compositions for Inhibiting Cell Growth and Inducing Apoptosis in Cancer Cells and Methods of Use Thereof” (THE BOARD OF TRUSTEES OF THE UNIVERSITY OF ILLINOI, priority 2004, published 2008).
Square brackets hold non-standard residues; d marks the D form. Peptide text beside a SMILES is read from it. * marks the point of attachment. Nle = CCCC[C@H](N)C(=O)O; Cbz = O=C(OCc1ccccc1)*

System: MDA-MB231 breast cancer cells
Assay: Cytotoxicity and growth assay in MDA-MB231 breast cancer cells (SRB, TCA-precipitated protein)
Assay type: cell-based, human
Protocol: An invasive, estrogen-independent breast cancer cell line that spontaneously expresses high levels of Notch-1 and -4, MDA-MB231, and normal human breast cells were used to investigate whether inhibition of Notch activation or expression affects the biological behavior of breast cancer cells. Human Mammary Epithelial Cells (HMEC) were purchased from Clonetics and cultured in mammary epithelial cell basal medium (MEBM) supplemented with 52 μg/ml Bovine Pituitary Extract […], […] human recombinant Epidermal Growth Factor (hEGF), 5 μg/ml insulin, 0.5 μg/ml Hydrocortisone, 50 μg/ml Gentamicin and 50 μg/ml Amphotericin-B. MDA-MB231 (ATCC, Rockville, Md.) were cultured in DMEM medium with 10% FBS. Notch expression in HMEC and MDA-MB231 cells was silenced using highly specific RNAi. Double-stranded synthetic 21-mer RNA oligonucleotides (siRNAs) were purchased from Dharmacon (Lafayette, Colo.). […] Sequence specificity was determined by BLAST searches which determined the uniqueness of the sequences. Transfection of siRNAs was performed using Oligofectamine (Invitrogen) as recommended by the siRNA manufacturer (Dharmacon). Transfection efficiency was optimized and followed on parallel wells using DNA double stranded oligos of identical sequence to the siRNAs, labeled with biotin on one strand. Transfected cells were identified by Streptavidin-horseradish peroxidase staining (Vectastain) and counted. Transfection efficiencies around 80% were routinely obtained.
Cytotoxicity and growth of transfected cells were estimated by a standard assay used for cancer drug screening, through the total amount of TCA-precipitated cell proteins after drug treatment (Likhitwitayawuid, K et al., 1993, J Nat Prod 56:30-38): 200 μl of cell suspension (10^5 cells/ml) were added to each well in a 96-well plate. After incubation at, 37° C., in 5% CO2 (30 minutes to 72 hours depending on the time course chosen), 50 μl 50% trichloroacetic acid was added to each well. After incubation at 4° C. for 1 hour, precipitates were washed with water 4-5 times and air dried overnight. One hundred μl of SRB solution (0.4% sulforhodamine B in 1% acetic acid, filtered before use) was added to each well for 30 minutes. Wells were washed with 1% acetic acid 4-5 times and air dried. Two hundred μl 10 mM Tris base was added to each well. Plates were shaken for 5-10 minutes and OD at 490 nm (OD490) was recorded via ELISA reader. To assay matrix invasion, 300 μl of cell suspension (10^6 cells/mL in serum-free medium) were added to invasion inserts (BioCoat Matrigel Invasion Chambers, Becton Dickinson, Bedford, Mass.) and incubated for 22 hours at 37° C., 5% CO2. […] After removal of the non-invading cells from the interior of the inserts, stained invading cells were lysed in 10% acetic acid and OD595 was determined. […]

Compound | proliferation (MDA-MB231, siRNA transfection) | IC50 (Homo sapiens, MDA-MB-231, MDA-MB231 (p53-mutant, ERα-negative), 48 h, read-out: IC50, cell growth inhibition)
5′-AAGTGTCTGAGGCCAGCAAGA-3′ [Notch-1 siRNA] | inhibits proliferation of MDA-MB231 breast cancer cells | –
CCCC[C@@H](C=O)NC(=O)[C@H](CC(C)C)NC(=O)[C@H](CC(C)C)NC(=O)OCc1ccccc1 [z-Leu-Leu-Nle-CHO, N-benzyloxycarbonyl-leucyl-leucyl-norleucinal] (Cbz-Leu-Leu-[Nle]-aldehyde) | – | 1300 nM
